Legend:
[1] = test system: C57Bl/6J mice; assay: Pre-pulse Inhibition (PPI) of startle in mice; assay type: in vivo; design: key: −: No change in PPI; +: Significant increase in PPI at one pre-pulse intensity (P value < 0.05); ++: Significant increase in PPI at two pre-pulse intensities (P value < 0.05); +++: Significant increase in PPI at three pre-pulse intensities (P value < 0.05); settings: 30 min prior to PPI test, vs. vehicle
Description: (§1) Anti-psychotic like activity of the compounds was evaluated […] using the PCP hyperactivity (in rats) and Pre-Pulse Inhibition (PPI; in mice) models of schizophrenia.
Animals—PPI: Male C57Bl/6J mice from Jackson Laboratories (Bar Harbor, Me.) were used in these studies. Upon receipt, mice were assigned unique identification numbers (tail marked) and were group housed with 4 mice per cage in OptiMICE ventilated cages. All animals remained housed in groups of four during the remainder of the study. All mice were acclimated to the colony room for at least one week prior to testing. During the period of acclimation, mice were examined on a regular basis, handled, and weighed to assure adequate health and suitability. Animals were maintained on a 12/12 light/dark cycle. The room temperature was maintained between 20 and 23° C. with a relative humidity maintained between 30% and 70%. Chow and water were provided ad libitum for the duration of the study. In each test, animals were randomly assigned across treatment groups.
The acoustic startle is an unconditioned reflex response to an external auditory stimulus. Prepulse inhibition of startle (PPI) refers to the reduction in the startle response caused by the presentation of a low-intensity auditory stimulus prior to the startle stimulus. The PPI paradigm is used for the study of schizophrenia and antipsychotic action due to the similarities between the results from human and rodent studies. PPI has been used as a tool for the assessment of deficiencies in sensory-motor gating observed in schizophrenia and to screen for potential antipsychotic drugs. Various psychotomimetic drugs such as PCP can disrupt PPI. In mice, antipsychotic drugs such as clozapine can reverse the disruption of PPI induced by PCP.
Mice were placed in the PPI chambers (Med Associates) for a 5 min session of white noise (70 dB) habituation. After the habituation period the test session was initiated. The session started with a habituation block of 6 presentations of the startle stimulus alone, followed by 10 PPI blocks, each of which consisted of 6 different types of trials. Trial types were: ‘null’ (no stimuli), ‘startle’ (120 dB), ‘startle plus prepulse’ (4, 8 and 12 dB over background noise, i.e., 74, 78 or 82 dB) and ‘prepulse’ (82 dB). Trial types were presented in a random order within each block. Each trial started with a 50 ms stimulus-free period during which baseline movements were recorded. This was followed by a subsequent 20 ms period during which the prepulse stimulus was presented and responses to the prepulse measured. After a further 100 ms period, the startle stimulus was presented for 40 ms and responses recorded for 100 ms from startle onset. Responses were sampled every ms. The inter-trial interval was variable with an average of 15 s (range from 10 to 20 s). In ‘startle’ trials the basic auditory startle response was measured. The basic startle response was calculated as the mean startle response of all ‘startle’ trials (i.e., excluding the first habituation block). In ‘startle plus prepulse’ trials the degree of inhibition of the normal startle was calculated and expressed as a percentage of the basic startle response.
Mice were treated with vehicle, haloperidol (1 mg/kg; i.p) or test compound 30 min prior to PPI test. The PPI enclosures were cleaned following each test.

[2] = test system: Sprague Dawley rats; assay: PCP-induced hyperactivity in rats; assay type: in vivo; design: key: −: No inhibition of PCP hyperactivity; +: Significant inhibition of PCP hyperactivity (P value < 0.05); settings: vs. vehicle + PCP
Description: as §1
Animals: PCP Hyperactivity: Male Sprague Dawley rats from Harlan (Indianapolis, Ind.) were used in these studies. Upon receipt, rats were assigned unique identification numbers and were group housed with 3 rats per cage in polycarbonate cages with micro-isolator filter tops. All rats were examined, handled, and weighed prior to initiation of the study to assure adequate health and suitability. The rats were maintained at 12/12 light/dark cycle with lights on at 7:00 am EST. The room temperature was maintained between 20 and 23° C. with a relative humidity maintained around 50%. Chow and water were provided ad libitum for the duration of the study. For each test, animals were randomly assigned across treatment groups.
The test chambers were Plexiglas rectangular chambers (24×45 cm) that fit inside two steel frames (9.5×18 inches) and were fitted with two-dimensional 4×8 beam grids to monitor horizontal and vertical locomotor activity (Hamilton Kinder, San Diego, Calif.). The analysis was configured to divide the open field of the chamber into a center and a periphery zone. Distance traveled was measured from horizontal beam breaks as the rat traveled whereas rearing activity was measured from vertical beam breaks.
Rats were administered with vehicle, test compound, or risperidone (0.5-1 mg/kg; i.p) and placed in the test chambers for 30 min measurement of baseline activity. Rats were then injected with either water or PCP (2.5 mg/kg; s.c) and placed back in the test chambers for a 60-minute session. At the end of each test session the chambers were thoroughly cleaned.

[3] = 3 mg/kg Compound + PCP (2.5 mg/kg s.c.)
[4] = 10 mg/kg Compound + PCP (2.5 mg/kg s.c.)
[5] = 30 mg/kg Compound + PCP (2.5 mg/kg s.c.)

Row | SMILES | Effect on Pre-pulse Inhibition (PPI) ([1]; 3 mg/kg) | Effect on Pre-pulse Inhibition (PPI) ([1]; 10 mg/kg) | Effect on Pre-pulse Inhibition (PPI) ([1]; 30 mg/kg) | Total Distance Traveled (cm), PCP-induced hyperactivity [2, 3] | Total Distance Traveled (cm), PCP-induced hyperactivity [2, 4] | Total Distance Traveled (cm), PCP-induced hyperactivity [2, 5] | Total Distance Traveled (cm), PCP-induced hyperactivity ([2]; 100 mg/kg Compound + PCP (2.5 mg/kg s.c.))
1 | Cc1sc2ccccc2c1C1C=CN=CN1 (stereo not drawn) [Compound 3] | + | + | +++ | − | + | + | 
2 | Cl.Fc1sc2ccccc2c1C1C=CN=CN1 (stereo not drawn) [Compound 15] | − | + | ++ | − | − | − | 
3 | Cc1c(C2C=CN=CN2)sc2ccccc12.Cl (stereo not drawn) [Compound 20] | − | − | − | + | − | + | 
4 | Cc1cc(C2C=CN=CN2)cs1.Cl (stereo not drawn) [Compound 21] | − | − | − |  | − | − | −
5 | Fc1ccc2c(c1)N=CNC2c1c(F)sc2ccccc12 (stereo not drawn) [Compound 239] | − | − | +++ | + (increase) | + (increase) | + (increase) | 

From US10556890B2, “Heteroaryl compounds and methods of use thereof” (Sunovion Pharmaceuticals Inc., priority 2012, dated 2020)
